ChEMBL document CHEMBL5338804 (J Med Chem, 2023)
Values after ≈ are worked out from the molar mass of the structure shown.

Key:
[1] = target: Mitogen-activated protein kinase 14 (Homo sapiens, UniProt Q16539); test: Inhibition of MAPK p38-alpha (unknown origin)
[2] = target: MAP kinase-activated protein kinase 2 (Homo sapiens, UniProt P49137); test: Inhibition of MK2 (unknown origin)
[3] = target: Glycogen synthase kinase-3 beta (Homo sapiens, UniProt P49841, H355L); test: Displacement of FL-KRREILSRRP[ps]ERYR-NH2 from human recombinant N-terminal His6-tagged GSK-3-beta (14 to 306 residues) H355L mutant expressed in baculovirus-infected Sf21 cells incubated for 20 hrs by fluorescence based analysis
[4] = target: Glycogen synthase kinase-3 alpha (Homo sapiens, UniProt P49840); test: Displacement of FL-KRREILSRRP[ps]ERYR-NH2 from human recombinant full length GST-tagged GSK-3-alpha expressed in insect cells incubated for 20 hrs by fluorescence based analysis; design: species or system Insect cell
[5] = target: Glycogen synthase kinase-3 (Homo sapiens, UniProt P49840+P49841); test: Inhibition of GSK-3 in human U2OS cells transfected with beta-catenin GFP and 4R1N tau plasmid assessed as inhibition of Tau phosphorylation at Ser396 residues by high-content imaging assay; assay type: cell-based
[6] = Metabolic stability in human liver microsomes assessed as parent compound remaining at 0.5 uM measured after 10 mins in presence of NADPH by LC-MS/MS analysis; assay type: ADME, Microsome; details: read-out: Stability
[7] = Metabolic stability in rat liver microsomes assessed as parent compound remaining at 0.5 uM measured after 10 mins in presence of NADPH by LC-MS/MS analysis; assay type: ADME, Microsome; details: read-out: Stability
[8] = Metabolic stability in mouse liver microsomes assessed as parent compound remaining at 0.5 uM measured after 10 mins in presence of NADPH by LC-MS/MS analysis; assay type: ADME, Microsome; details: read-out: Stability
[9] = target: AP2-associated protein kinase 1 (Homo sapiens, UniProt Q2M2I8); test: Inhibition of AAK1 (unknown origin)
Aurora kinase B = Aurora kinase B (Homo sapiens, UniProt Q96GD4); test: Inhibition of Aurora kinase B (unknown origin)
[10] = target: Tyrosine-protein kinase BTK (Homo sapiens, UniProt Q06187); test: Inhibition of BTK (unknown origin)
[11] = target: Casein kinase II subunit alpha (Homo sapiens, UniProt P68400); test: Inhibition of CK2A1 (unknown origin)
[12] = target: Casein kinase II subunit alpha' (Homo sapiens, UniProt P19784); test: Inhibition of CK2A2 (unknown origin)
[13] = target: Mast/stem cell growth factor receptor Kit (Homo sapiens, UniProt P10721); test: Inhibition of c-Kit (unknown origin)
[14] = target: Insulin-like growth factor 1 receptor (Homo sapiens, UniProt P08069); test: Inhibition of IGF1R (unknown origin)
[15] = target: Interleukin-1 receptor-associated kinase 1 (Homo sapiens, UniProt P51617); test: Inhibition of IRAK1 (unknown origin)
[16] = target: Interleukin-1 receptor-associated kinase 4 (Homo sapiens, UniProt Q9NWZ3); test: Inhibition of IRAK4 (unknown origin)
[17] = target: Tyrosine-protein kinase JAK1 (Homo sapiens, UniProt P23458); test: Inhibition of JAK1 (unknown origin)
[18] = target: Tyrosine-protein kinase JAK2 (Homo sapiens, UniProt O60674); test: Inhibition of JAK2 (unknown origin)
[19] = target: Tyrosine-protein kinase Lck (Homo sapiens, UniProt P06239); test: Inhibition of LCK (unknown origin)
[20] = target: Platelet-derived growth factor receptor beta (Homo sapiens, UniProt P09619); test: Inhibition of PDGFR-beta (unknown origin)
[21] = target: Protein kinase C theta type (Homo sapiens, UniProt Q04759); test: Inhibition of PKC theta (unknown origin)
[22] = target: Ribosomal protein S6 kinase alpha-1 (Homo sapiens, UniProt Q15418); test: Inhibition of RSK1 (unknown origin)
[23] = target: Tyrosine-protein kinase SYK (Homo sapiens, UniProt P43405); test: Inhibition of SYK (unknown origin)
[24] = target: Non-receptor tyrosine-protein kinase TYK2 (Homo sapiens, UniProt P29597); test: Inhibition of TYK2 (unknown origin)
[25] = target: Cyclin-dependent kinase 2 (Homo sapiens, UniProt P24941); test: Inhibition of CDK2 (unknown origin)
[26] = target: Cyclin-dependent kinase 5 (Homo sapiens, UniProt Q00535); test: Inhibition of CDK5 (unknown origin)
[27] = target: Serine/threonine-protein kinase pim-1 (Homo sapiens, UniProt P11309); test: Inhibition of PIM1 (unknown origin)
[28] = Permeability of the compound at 100 uM incubated for 4 hrs at pH 5.5 by PAMPA assay; assay type: ADME; details: read-out: permeability
[29] = Permeability of the compound from apical to basolateral side in human Caco-2 cells at 3 uM incubated for 2 hrs by LC-MS/MS analysis; assay type: ADME, cell-based; details: read-out: permeability
[30] = Permeability of the compound from basolateral to apical side in human Caco-2 cells at 3 uM incubated for 2 hrs by LC-MS/MS analysis; assay type: ADME, cell-based; details: read-out: permeability
[31] = Protein binding in human plasma assessed as unbound fraction at 10 uM incubated for 5 hrs by equilibrium dialysis method; assay type: ADME, cell-free
[32] = Protein binding in rat plasma assessed as unbound fraction at 10 uM incubated for 5 hrs by equilibrium dialysis method; assay type: ADME, cell-free
[33] = Protein binding in mouse plasma assessed as unbound fraction at 10 uM incubated for 5 hrs by equilibrium dialysis method; assay type: ADME, cell-free
[34] = Protein binding in mouse brain assessed as unbound fraction at 1 uM incubated for 4 hrs by LC-MS analysis; assay type: ADME, tissue-based
[35] = Thermodynamic aqueous solubility of the compound at pH 1 incubated for 18 to 24 hrs by HPLC-UV analysis; assay type: physicochemical; details: aqueous medium, time 18-24 hrs, read-out: Therm_solubility
[36] = Thermodynamic aqueous solubility of the compound at pH 7.4 incubated for 18 to 24 hrs by HPLC-UV analysis; assay type: physicochemical; details: aqueous medium, time 18-24 hrs, read-out: Therm_solubility
[37] = Clearance in C57BL/6 mouse at 2 mg/kg, iv by LC-MS/MS analysis; assay type: ADME, organism-based; details: in vivo
[38] = Volume of distribution at steady state in C57BL/6 mouse at 2 mg/kg, iv by LC-MS/MS analysis; assay type: ADME, organism-based; details: in vivo, read-out: Vdss
[39] = MRT in C57BL/6 mouse at 2 mg/kg, iv by LC-MS/MS analysis; assay type: ADME, organism-based; details: in vivo
[40] = Half life in C57BL/6 mouse at 2 mg/kg, iv by LC-MS/MS analysis; assay type: ADME, organism-based; details: in vivo
[41] = AUC (total) in C57BL/6 mouse at 10 mg/kg, po by LC-MS/MS analysis; assay type: ADME, organism-based; design: dose 10 mg/kg, route po; details: in vivo
[42] = Cmax in C57BL/6 mouse at 10 mg/kg, po by LC-MS/MS analysis; assay type: ADME, organism-based; design: dose 10 mg/kg, route po; details: in vivo
[43] = Oral bioavailability in C57BL/6 mouse at 10 mg/kg by LC-MS/MS analysis; assay type: ADME, organism-based; details: in vivo
Mus musculus = test: Anti-alzheimer activity against LaFerla 3x transgenic Alzheimer's disease C57BL/6 mouse model assessed as reduction in tau phosphorylation at Ser396 residue in brain at 10 mg/kg, po measured after 5 hrs by ELISA; assay type: functional
[44] = Plasma concentration in LaFerla 3x transgenic Alzheimer's disease C57BL/6 mouse model at 10 mg/kg, po measured after 5 hrs; assay type: ADME, organism-based
[45] = Drug uptake in brain of LaFerla 3x transgenic Alzheimer's disease C57BL/6 mouse model at 10 mg/kg, po measured after 5 hrs; assay type: ADME, organism-based; details: read-out: Drug uptake
[46] = Ratio of drug concentration in brain to plasma in LaFerla 3x transgenic Alzheimer's disease C57BL/6 mouse model at 10 mg/kg, po measured after 5 hrs; assay type: ADME, organism-based; details: read-out: BPR
[47] = Ratio of unbound drug concentration in mouse brain to plasma at 10 uM incubated for 5 hrs by equilibrium dialysis method; assay type: ADME, cell-free; details: read-out: K(p,uu,brain)
[48] = Permeability of the compound at 100 uM incubated for 4 hrs at pH 7.4 by PAMPA assay; assay type: ADME; details: read-out: permeability
[49] = target: Casein kinase I isoform alpha (Homo sapiens, UniProt P48729); test: Inhibition of CK1A1 (unknown origin)
Aurora kinase A = Aurora kinase A (Mus musculus, UniProt P97477); test: Inhibition of mouse Aurora kinase A

Chain of Tyrosine-protein kinase Lck (P06239 whole entry): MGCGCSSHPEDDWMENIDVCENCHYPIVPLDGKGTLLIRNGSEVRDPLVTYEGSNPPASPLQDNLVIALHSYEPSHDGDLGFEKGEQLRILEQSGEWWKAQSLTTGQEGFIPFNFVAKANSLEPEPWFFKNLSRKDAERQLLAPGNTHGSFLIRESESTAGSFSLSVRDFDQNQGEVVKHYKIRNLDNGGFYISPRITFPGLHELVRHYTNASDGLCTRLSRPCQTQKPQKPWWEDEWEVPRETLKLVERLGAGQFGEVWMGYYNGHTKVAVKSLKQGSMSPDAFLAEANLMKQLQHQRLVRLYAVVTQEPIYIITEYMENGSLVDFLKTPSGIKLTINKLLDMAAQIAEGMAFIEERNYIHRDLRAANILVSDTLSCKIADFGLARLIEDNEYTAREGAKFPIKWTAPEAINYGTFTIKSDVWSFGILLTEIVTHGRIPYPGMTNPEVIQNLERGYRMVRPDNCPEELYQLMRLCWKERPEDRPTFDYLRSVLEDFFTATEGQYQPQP
Chain of Casein kinase II subunit alpha' (P19784 whole entry): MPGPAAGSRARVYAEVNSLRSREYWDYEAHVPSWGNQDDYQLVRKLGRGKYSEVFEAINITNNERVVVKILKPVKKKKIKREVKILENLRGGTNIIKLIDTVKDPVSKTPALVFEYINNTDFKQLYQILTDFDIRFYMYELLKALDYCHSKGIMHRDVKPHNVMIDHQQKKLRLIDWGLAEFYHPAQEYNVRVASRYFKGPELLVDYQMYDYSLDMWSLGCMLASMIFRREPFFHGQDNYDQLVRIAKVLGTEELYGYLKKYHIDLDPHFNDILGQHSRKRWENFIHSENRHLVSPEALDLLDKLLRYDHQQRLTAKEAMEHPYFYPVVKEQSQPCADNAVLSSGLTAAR
Chain of Tyrosine-protein kinase BTK (Q06187 whole entry): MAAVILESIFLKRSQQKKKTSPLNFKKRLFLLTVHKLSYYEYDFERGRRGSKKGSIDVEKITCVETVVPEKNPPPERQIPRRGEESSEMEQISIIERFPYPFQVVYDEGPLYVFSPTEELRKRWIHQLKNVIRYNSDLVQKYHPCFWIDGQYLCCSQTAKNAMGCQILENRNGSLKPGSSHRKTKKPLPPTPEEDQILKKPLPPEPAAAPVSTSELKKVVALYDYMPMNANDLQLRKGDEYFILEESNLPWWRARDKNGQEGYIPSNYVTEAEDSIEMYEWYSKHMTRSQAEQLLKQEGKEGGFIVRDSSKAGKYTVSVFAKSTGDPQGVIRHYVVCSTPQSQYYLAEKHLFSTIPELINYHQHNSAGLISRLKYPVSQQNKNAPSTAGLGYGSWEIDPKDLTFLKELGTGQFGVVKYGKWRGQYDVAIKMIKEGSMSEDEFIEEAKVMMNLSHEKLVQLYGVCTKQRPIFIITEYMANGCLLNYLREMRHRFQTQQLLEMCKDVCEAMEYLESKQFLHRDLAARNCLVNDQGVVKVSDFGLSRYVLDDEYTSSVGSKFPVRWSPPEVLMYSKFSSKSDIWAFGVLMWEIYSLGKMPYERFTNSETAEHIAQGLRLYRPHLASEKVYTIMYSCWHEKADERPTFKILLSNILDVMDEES
Chain of Interleukin-1 receptor-associated kinase 4 (Q9NWZ3 whole entry): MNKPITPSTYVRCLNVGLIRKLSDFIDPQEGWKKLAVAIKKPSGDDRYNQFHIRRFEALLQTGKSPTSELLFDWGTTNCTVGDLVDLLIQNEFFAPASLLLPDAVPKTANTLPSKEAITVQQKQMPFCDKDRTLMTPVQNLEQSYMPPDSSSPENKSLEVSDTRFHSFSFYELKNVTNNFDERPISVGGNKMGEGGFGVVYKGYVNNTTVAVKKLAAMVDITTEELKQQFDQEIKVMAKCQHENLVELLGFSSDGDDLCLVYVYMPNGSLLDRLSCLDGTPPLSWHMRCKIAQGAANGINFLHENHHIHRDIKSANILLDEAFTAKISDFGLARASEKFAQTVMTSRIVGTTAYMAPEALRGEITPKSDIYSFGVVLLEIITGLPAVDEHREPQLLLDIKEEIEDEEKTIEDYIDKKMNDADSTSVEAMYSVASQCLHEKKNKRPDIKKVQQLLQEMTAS
Chain of Casein kinase II subunit alpha (P68400 whole entry): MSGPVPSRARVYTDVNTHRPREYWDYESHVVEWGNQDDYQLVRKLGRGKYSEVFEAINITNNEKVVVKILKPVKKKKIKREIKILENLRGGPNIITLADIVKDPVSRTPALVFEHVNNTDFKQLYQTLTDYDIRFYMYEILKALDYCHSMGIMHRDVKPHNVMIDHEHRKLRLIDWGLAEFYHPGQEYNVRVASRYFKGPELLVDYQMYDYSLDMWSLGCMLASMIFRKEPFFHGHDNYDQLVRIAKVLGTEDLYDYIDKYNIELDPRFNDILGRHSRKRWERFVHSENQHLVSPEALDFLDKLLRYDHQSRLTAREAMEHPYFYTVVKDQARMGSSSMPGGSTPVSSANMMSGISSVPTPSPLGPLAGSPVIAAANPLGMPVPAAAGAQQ
Chain of Interleukin-1 receptor-associated kinase 1 (P51617 whole entry): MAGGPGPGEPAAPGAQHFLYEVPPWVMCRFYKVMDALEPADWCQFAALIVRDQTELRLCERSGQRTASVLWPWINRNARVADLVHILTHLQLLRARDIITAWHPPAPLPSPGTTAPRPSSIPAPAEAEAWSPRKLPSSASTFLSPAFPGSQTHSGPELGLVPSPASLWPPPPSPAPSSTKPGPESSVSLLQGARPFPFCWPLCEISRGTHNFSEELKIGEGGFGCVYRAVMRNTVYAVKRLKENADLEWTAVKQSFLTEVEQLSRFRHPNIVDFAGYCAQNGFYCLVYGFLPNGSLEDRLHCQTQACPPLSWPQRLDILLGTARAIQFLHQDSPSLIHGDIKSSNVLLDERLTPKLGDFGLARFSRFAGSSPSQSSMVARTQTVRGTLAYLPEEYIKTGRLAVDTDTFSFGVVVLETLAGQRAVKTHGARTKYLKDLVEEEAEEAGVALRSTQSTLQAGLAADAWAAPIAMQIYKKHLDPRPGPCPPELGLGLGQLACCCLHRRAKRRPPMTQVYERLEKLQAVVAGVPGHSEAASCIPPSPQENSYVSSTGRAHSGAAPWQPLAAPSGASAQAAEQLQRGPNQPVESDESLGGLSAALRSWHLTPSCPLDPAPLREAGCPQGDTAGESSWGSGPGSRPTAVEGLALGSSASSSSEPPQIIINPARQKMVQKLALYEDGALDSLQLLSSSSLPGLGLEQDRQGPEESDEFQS
Chain of Casein kinase I isoform alpha (P48729 whole entry, canonical isoform): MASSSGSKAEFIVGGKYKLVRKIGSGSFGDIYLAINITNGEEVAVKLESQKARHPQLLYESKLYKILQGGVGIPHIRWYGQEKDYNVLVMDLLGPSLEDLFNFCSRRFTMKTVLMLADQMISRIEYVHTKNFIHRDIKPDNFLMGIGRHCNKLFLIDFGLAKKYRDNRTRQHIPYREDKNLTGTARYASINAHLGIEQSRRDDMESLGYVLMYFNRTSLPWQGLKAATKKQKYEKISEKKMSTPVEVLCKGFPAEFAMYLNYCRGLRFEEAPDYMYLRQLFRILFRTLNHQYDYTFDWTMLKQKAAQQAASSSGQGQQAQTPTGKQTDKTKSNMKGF
Chain of Non-receptor tyrosine-protein kinase TYK2 (P29597 whole entry): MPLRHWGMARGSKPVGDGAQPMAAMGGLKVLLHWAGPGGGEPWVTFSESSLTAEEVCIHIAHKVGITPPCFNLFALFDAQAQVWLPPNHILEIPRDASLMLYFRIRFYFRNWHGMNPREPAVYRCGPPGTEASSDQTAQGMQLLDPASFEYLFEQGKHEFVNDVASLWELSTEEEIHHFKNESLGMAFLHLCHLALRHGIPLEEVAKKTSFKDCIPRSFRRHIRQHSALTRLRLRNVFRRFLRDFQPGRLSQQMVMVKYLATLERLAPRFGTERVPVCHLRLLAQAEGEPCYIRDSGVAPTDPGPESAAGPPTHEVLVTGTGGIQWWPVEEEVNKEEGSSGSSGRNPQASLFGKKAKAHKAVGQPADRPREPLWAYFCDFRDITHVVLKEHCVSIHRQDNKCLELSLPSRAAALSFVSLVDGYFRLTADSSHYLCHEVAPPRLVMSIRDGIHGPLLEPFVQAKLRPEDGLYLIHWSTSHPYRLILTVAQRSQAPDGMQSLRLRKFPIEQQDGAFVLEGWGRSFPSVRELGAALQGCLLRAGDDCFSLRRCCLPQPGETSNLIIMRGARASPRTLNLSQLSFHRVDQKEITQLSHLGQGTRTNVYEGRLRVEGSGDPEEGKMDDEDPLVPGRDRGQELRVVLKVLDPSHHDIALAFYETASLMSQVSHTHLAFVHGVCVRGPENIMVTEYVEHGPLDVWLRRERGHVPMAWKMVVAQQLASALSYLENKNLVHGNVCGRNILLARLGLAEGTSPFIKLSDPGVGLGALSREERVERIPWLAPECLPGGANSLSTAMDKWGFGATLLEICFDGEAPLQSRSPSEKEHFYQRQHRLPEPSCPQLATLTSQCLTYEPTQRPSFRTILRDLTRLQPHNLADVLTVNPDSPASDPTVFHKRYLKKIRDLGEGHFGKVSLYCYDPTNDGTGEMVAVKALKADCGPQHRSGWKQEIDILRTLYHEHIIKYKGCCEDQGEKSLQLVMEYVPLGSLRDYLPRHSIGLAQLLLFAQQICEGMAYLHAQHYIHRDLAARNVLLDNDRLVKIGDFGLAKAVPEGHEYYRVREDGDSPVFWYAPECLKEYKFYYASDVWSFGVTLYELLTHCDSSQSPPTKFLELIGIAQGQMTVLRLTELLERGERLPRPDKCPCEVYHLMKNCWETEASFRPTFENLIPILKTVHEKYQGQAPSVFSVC
Chain of Cyclin-dependent kinase 5 (Q00535 whole entry): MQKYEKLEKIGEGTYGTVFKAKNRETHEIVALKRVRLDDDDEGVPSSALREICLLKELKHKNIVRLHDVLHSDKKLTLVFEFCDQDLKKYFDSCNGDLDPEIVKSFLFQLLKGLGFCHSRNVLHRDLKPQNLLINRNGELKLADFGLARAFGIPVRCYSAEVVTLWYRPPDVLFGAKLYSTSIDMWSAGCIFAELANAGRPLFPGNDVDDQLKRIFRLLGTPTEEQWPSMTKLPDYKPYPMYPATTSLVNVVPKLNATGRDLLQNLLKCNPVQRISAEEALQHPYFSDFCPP

SMILES: N#Cc1ccc(Nc2nccc(C(=O)Nc3cnccc3-c3ccc(F)cc3)n2)cc1
- IC50 [1]: 23 µM
- IC50 [2]: > 50 µM
- IC50 [3]: 0.35 nM
- IC50 [4]: 0.25 nM
- IC50 [5]: 10 nM
- remaining at 10 min, 0.5 µM [6]: 79%
- remaining at 10 min, 0.5 µM [7]: 66%
- remaining at 10 min, 0.5 µM [8]: 66%
- IC50 [9]: > 2000 nM
- IC50 (Aurora kinase B): 11 µM
- IC50 [10]: 13 µM
- IC50 [11]: > 50 µM
- IC50 [12]: > 2000 nM
- IC50 [13]: 5.6 µM
- IC50 [14]: 17 µM
- IC50 [15]: > 2000 nM
- IC50 [16]: > 50 µM
- IC50 [17]: 31 µM
- IC50 [18]: 13 µM
- IC50 [19]: > 2000 nM
- IC50 [20]: 37 µM
- IC50 [21]: 17 µM
- IC50 [22]: > 50 µM
- IC50 [23]: > 50 µM
- IC50 [24]: > 50 µM
- IC50 [25]: 220 nM
- IC50 [26]: 1300 nM
- IC50 [27]: 720 nM
- Papp at 4 h, 100 µM [28]: 121 ×10⁻⁶ cm/s
- Papp A→B at 2 h, 3 µM [29]: 24.4 ×10⁻⁶ cm/s
- Papp B→A at 2 h, 3 µM [30]: 9.8 ×10⁻⁶ cm/s
- fraction unbound at 5 h, 10 µM [31]: 0.011
- fraction unbound at 5 h, 10 µM [32]: 0.019
- fraction unbound at 5 h, 10 µM [33]: 0.03
- fraction unbound at 4 h, 1 µM [34]: 0.012
- solubility thermodynamic [35]: 16 µg/mL (≈ 39 µM)
- solubility thermodynamic [36]: < 1 µg/mL
- clearance [37]: 23.3 mL/min/kg
- Vd [38]: 5.4 L/kg
- MRT [39]: 3.9 h
- half-life [40]: 150 min
- AUC [41]: 24.3 µM·h
- Cmax [42]: 3500 nM
- bioavailability [43]: 100%
- inhibition in vivo at 10 mg/kg (Mus musculus): 33%
- concentration at 5 h [44]: 410 nM
- concentration at 5 h [45]: 370 nM
- Kp at 5 h [46]: 0.9
- Kp uu at 5 h, 10 µM [47]: 0.4
- Papp at 4 h, 100 µM [48]: 84 ×10⁻⁶ cm/s
- IC50 [49]: > 2000 nM
- IC50 (Aurora kinase A): 17 µM

SMILES: O=C(Nc1cnccc1-c1ccc(F)cc1)c1ccnc(Nc2ccc(F)cc2)n1
- IC50 [1]: > 50 µM
- IC50 [2]: > 27 µM
- IC50 [3]: 0.56 nM
- IC50 [4]: 0.45 nM
- IC50 [5]: 34 nM
- remaining at 10 min, 0.5 µM [6]: 67%
- remaining at 10 min, 0.5 µM [7]: 10%
- remaining at 10 min, 0.5 µM [8]: 54%
- IC50 [9]: > 2000 nM
- IC50 (Aurora kinase B): 11 µM
- IC50 [10]: > 50 µM
- IC50 [11]: > 50 µM
- IC50 [12]: > 2000 nM
- IC50 [13]: > 2 µM
- IC50 [15]: > 2000 nM
- IC50 [16]: > 23 µM
- IC50 [17]: > 50 µM
- IC50 [18]: 14 µM
- IC50 [19]: > 2000 nM
- IC50 [20]: > 50 µM
- IC50 [21]: 10.4 µM
- IC50 [22]: > 50 µM
- IC50 [23]: 16 µM
- IC50 [24]: 17 µM
- IC50 [25]: 470 nM
- IC50 [26]: 680 nM
- IC50 [27]: 1400 nM
- Papp at 4 h, 100 µM [28]: 62 ×10⁻⁶ cm/s
- Papp A→B at 2 h, 3 µM [29]: 11.8 ×10⁻⁶ cm/s
- Papp B→A at 2 h, 3 µM [30]: 4.4 ×10⁻⁶ cm/s
- fraction unbound at 5 h, 10 µM [31]: 0.002
- fraction unbound at 5 h, 10 µM [32]: 0.007
- fraction unbound at 5 h, 10 µM [33]: 0.008
- fraction unbound at 4 h, 1 µM [34]: 0.003
- solubility thermodynamic [35]: 31 µg/mL (≈ 76.8 µM)
- solubility thermodynamic [36]: 1 µg/mL (≈ 2.48 µM)
- clearance [37]: 18.9 mL/min/kg
- Vd [38]: 2.6 L/kg
- MRT [39]: 2.3 h
- half-life [40]: 168 min
- AUC [41]: 11.7 µM·h
- Cmax [42]: 1500 nM
- bioavailability [43]: 53%
- concentration at 5 h [44]: 180 nM
- concentration at 5 h [45]: 180 nM
- Kp at 5 h [46]: 1
- Kp uu at 5 h, 10 µM [47]: 0.4
- Papp at 4 h, 100 µM [48]: 59 ×10⁻⁶ cm/s
- IC50 [49]: > 2000 nM
- IC50 (Aurora kinase A): > 50 µM
